Reference: patent US20210000912A1, “Compositions And Methods For Prophylaxis Or Treatment Of Pain” (Interk Peptide Therapeutics Limited, priority 2017, published 2021)

Experiments:
PKG1α (h) = biological target: T1, PKG1α (h) (Homo sapiens, UniProt Q13976); assay: PKG1α kinase activity assay, cell free; type: biochemical
T1 construct: purchased Eurofins Pharma Discovery Services UK Ltd (contract assay service)
T1 sequence (Q13976 1-671): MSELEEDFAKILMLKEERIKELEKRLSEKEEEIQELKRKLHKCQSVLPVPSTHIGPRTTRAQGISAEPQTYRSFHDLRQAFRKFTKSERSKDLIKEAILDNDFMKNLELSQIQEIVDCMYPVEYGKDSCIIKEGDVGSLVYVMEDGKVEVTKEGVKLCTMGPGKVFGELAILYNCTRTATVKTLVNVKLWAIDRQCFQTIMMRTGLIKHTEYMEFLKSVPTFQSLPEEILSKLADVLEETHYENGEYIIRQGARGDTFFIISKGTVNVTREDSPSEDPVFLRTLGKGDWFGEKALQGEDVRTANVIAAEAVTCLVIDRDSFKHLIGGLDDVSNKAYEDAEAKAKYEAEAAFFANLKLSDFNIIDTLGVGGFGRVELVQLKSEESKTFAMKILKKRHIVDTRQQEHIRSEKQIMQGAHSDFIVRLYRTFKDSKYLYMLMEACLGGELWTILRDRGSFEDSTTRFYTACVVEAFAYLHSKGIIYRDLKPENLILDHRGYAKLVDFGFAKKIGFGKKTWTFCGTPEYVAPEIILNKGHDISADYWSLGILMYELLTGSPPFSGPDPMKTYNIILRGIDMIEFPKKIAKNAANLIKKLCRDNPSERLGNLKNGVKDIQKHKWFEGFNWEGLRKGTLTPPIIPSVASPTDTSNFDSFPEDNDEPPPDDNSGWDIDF
Method: The capacity of test peptides to inhibit the activity of the kinases PKG1α, PKG1β, and Src family kinases in a cell free assay was assessed. The test peptides were amidated at their C-terminal end (indicated by “—NH2”) unless otherwise noted. Kinase activity assays were conducted by Eurofins Pharma Discovery Services UK Ltd (Dundee Technology Park, Dundee, United Kingdom) and Reaction Biology Corp. (Malvern, Pa., USA).
All test peptides are prepared to 50× final assay concentration in 100% DMSO. This working stock of the test compound is added to assay wells as the first component in the reaction, followed by the remaining components of the respective assay protocols described below. There is no pre-incubation step between the test peptide and the kinase prior to initiation of the reaction. The kinases are diluted in buffer (20 mM MOPS, 1 mM EDTA, 0.01% Brij-35, 5% Glycerol, 0.1% β-mercaptoethanol, 1 mg/mL BSA) prior to addition to the reaction mix.
Positive control wells contain all components of the reaction, except the test peptide of interest. However, DMSO (at a final concentration of 2%) is included in positive control wells to control for solvent effects. Negative control wells contain all components of the reaction, with a reference inhibitor (staurosporine) replacing the test peptide. This abolishes kinase activity and establishes a base-line (0% kinase activity). Kinase assay protocols (Eurofins Pharma Discovery Services UK Ltd, Dundee Technology Park, Dundee, United Kingdom) are described below. Of the Src family kinases, only the assay protocol for c-Src is shown.
PKG1α (h) is incubated with 8 mM MOPS pH 7.0, 0.2 mM EDTA, 10 μM cGMP, 200 μM peptide RRRLSFAEPG, 10 mM magnesium acetate and [γ-^33P]-ATP (specific activity approx. 500 cpm/pmol, concentration as required). The reaction is initiated by the addition of the MgATP mix. After incubation for 40 minutes at room temperature, the reaction is stopped by the addition of 3% phosphoric acid solution. A 10 μL aliquot of the reaction is then spotted onto a P30 filtermat and washed three times for 5 mins in 75 mM phosphoric acid and once in methanol prior to drying and scintillation counting.

CFA-injected mice = assay: CFA inflammatory pain model, incapacitance testing

In the case of N=C(N)NCCC[C@H](NC(=O)[C@H](CCCNC(=N)N)NC(=O)[C@H](CCCNC(=N)N)NC(=O)[C@H](CCCNC(=N)N)NC(=O)[C@H](CCCNC(=N)N)NC(=O)[C@H](CCCNC(=N)N)NC(=O)[C@H](CCCNC(=N)N)NC(=O)[C@H](CCCNC(=N)N)NC(=O)[C@H](CCCNC(=N)N)NC(=O)[C@H](CCCNC(=N)N)NC(=O)[C@H](CCCNC(=N)N)NC(=O)[C@H](CCCNC(=N)N)NC(=O)[C@H](CCCNC(=N)N)NC(=O)[C@@H](N)CCCNC(=N)N)C(N)=O [IK01400, RRRRRRRRRRRRRR-NH2], the IC50 (PKG1α (h)) is reported as 6.7 nM, the “PKG1α IC50” value (PKG1α (h); cell free, 10 μM cGMP, 40 minutes at room temperature) is reported as “single digit nanomolar range” and the “alleviation of inflammatory pain” value (CFA-injected mice; mice, both doses of the peptide employed) is reported as “alleviated pain”. For the same compound, the hyperactivity (CFA-injected mice; mice, intra-peritoneal) was “no hyperactivity was observed”, the “time at which peak effect was reached following administration” value (CFA-injected mice; mice, intra-peritoneal) was greater than 1 h and the “effectiveness in incapacitance test, morphine versus IK01400 (8.6 mg/kg)” value (CFA-injected mice; second hour after administration) was “more effective than morphine”.
